Measured values taken from US9289443B2, “Pharmaceutical composition and method for preventing or treating hepatitis C” (INDUSTRIAL TECHNOLOGY RESEARCH INSTITUTE, priority 2010, dated 2016).
Where two headings read alike, the source gives them in different places.

How the values were obtained:
[1] = system: HCV replicon system (Huh-luc/neo-ET cell carrying I389luc-ubi-NS3-3'/ET); test: Inhibition of the HCV replication by determining the firefly luciferase activity (HCV replicon system); assay type: cell-based, Hepatitis C virus; conditions: for IC50 / inhibition at 10 µM / inhibition at 1 µM: Hepatitis C virus; for inhibition at 10 µM / inhibition at 1 µM: 48 h, read-out: Inhibition rate (%); for EW (CC50/IC50): ratio of CC50/IC50; for inhibition at 1 µM: compound concentration 1 μM
Source text: HCV replicon system was used to test the effects of compounds on the treatment and prevention of hepatitis C. The HCV replicon system has been acknowledged as a screening tool for new drugs (Lohmann, V. et al., 1999, Replication of subgenomic hepatitis C virus RNAs in hepatoma cell line, Science. Vol. 285, 110-113; Bartenschlager, R. 2002, Hepatitis C virus replicons: potential role for drug development, Nature Reviews/Drug Discovery. Vol. 1, 911-916; Vorlijk, J. M. et al., 2003, A replicon-based bioassay for the measurement of interferons in patients with chronic hepatitis C, Journal of Virological Methods. 110:201-209). The HCV replicon system includes a Huh-luc/neo-ET cell carrying I389luc-ubi-NS3-3′/ET gene construct which monitors the replicative capability of the HCV. In the HCV replicon system, a firefly luciferase-ubiquitin-neomycin fusion protein is expressed by the translation of the internal ribosomal entry site (IRES) of the HCV, and the hepatitis C viral nonstructural proteins (NS3-5B), which includes protease, helicase and polymerase, are expressed by the translation of the IRES of the encephalomyocarditis virus (EMCV).
The IRES of the hepatitis C virus or the hepatitis C viral nonstructural proteins consist of a replication complex. When the replication complex is affected by the candidate compound, the activity of the HCV replicon system is inhibited and the activity of the luciferase is reduced. Accordingly, the inhibition of the HCV can be estimated by determining the activity of the intensity of the luciferase expressed by the Huh-luc/noe-ET cell.
Inhibition of the HCV Replication by Determining the Firefly Luciferase Activity
(§1) Huh-luc/neo-ET cells with a concentration of 2.5×10^4 cells/100 μl/well were seeded into a 96 well culture plate (Corning Incorporation COSTAR, 3599) and placed into a cell incubator for culturing.
The oleanolic acid derivatives as listed in Table 2 were co-cultured with Huh-luc/neo-ET cells for 2 days. The mediums were washed twice by 100 μl of 1×PBS (1 mM KH2PO4, 10 mM Na2HPO4, 137 mM NaCl, 2.7 mM KCl) and PBS was removed. 35 μl of 1× passive lysis buffer (Promega, E1941) was added to the cells and vortexed for 10 minutes to thoroughly lysis the cells.
30 μl/well of the cell suspension was then added to a 96 well white plate (NUNC, 236108) for the measurement of the luciferase activity. Subsequently, 40 μl/well of luminescence analysis buffer and 20 μl/well of luminescence substrate (1 mM D-Luciferin) were added into the 96 well white plates. The luciferase activity (Rlu/s) was measured by a microplate luminescence meter (Berthold, MPL4) immediately.
The luciferase activity of the control was set as a standard to calculate the inhibition rates (%) of HCV of the experiment groups. The inhibition rates was calculated by the following formula: […]
After the test compounds were serial diluted and the inhibition rates of the HCV replication were determined at different concentrations, the concentration at 50% inhibition of the HCV replication (IC50) was calculated by grafit5 software (Erithacus Software).
For each experiment, 0.5 ng/ml and 0.1 ng/ml of the PEG IFN alpha-2a were used as positive controls for the IC50 test. Meanwhile, 1 μg/ml of cyclosporine A (CsA) was also used as a positive control for the IC50 test.

Huh-luc/neo-ET cells = test: Cell cytotoxic test (MTT) on Huh-luc/neo-ET cells; assay type: cell-based; conditions: concentration for 15% cell kill, two-day culture
Experimental: (§2) Cell Cytotoxic Test on Huh-luc/noe-ET Cells
as §1
(§3) The next day, the oleanolic acid derivatives as listed in the following Tables 1 and 2 were diluted with a DMEM culture medium to the concentrations of 28.73 μg/ml, 9.57 μg/ml, 3.19 μg/ml, 1.06 μg/ml, 0.35 μg/ml, 0.11 μg/ml, 0.039 μg/ml and 0.013 μg/ml, respectively, or diluted to the concentrations of 114.92 μg/ml, 38.33 μg/ml, 12.77 μg/ml, 4.25 μg/ml, 1.42 μg/ml, 0.46 μg/ml, 0.16 μg/ml and 0.057 μg/ml, respectively. The initial medium in the 96 well culture plate was sucked out by a vacuum pump (DOAT-704AA) without removing the cells. Then, the culture medium containing the oleanolic acid derivatives were added into the 96 well culture plate containing 100 μl/well of the cells as the experiment groups, while the untreated culture mediums were added to the cells as a control.
(§4) After a two-day culture, the medium was removed and each well containing cells was washed by 100 μl of 1×PBS (1 mM KH2PO4, 10 mM Na2HPO4, 137 mM NaCl, 2.7 mM KCl) twice. Precipitates were recorded and PBS was removed. 50 μl of the medium containing 0.5 mg/ml of MTT (Sigma, M2128) was added into each well of the 96 well culture plate. The 96 well culture plate was placed in a CO2 culture incubator for 1 hour. Subsequently, 150 μl of DMSO (Riedel-de Haül, 60153) was added to each well of the 96 well culture plate and vortexed (KS shaker Type 670) to thoroughly mix the resulting purple precipitates. The 96 well culture plate was then placed in a continuous wave length microwell plate analysis system (Molecular Devices, SPECTRAMAX 190) to measure the absorbance of cells at a wavelength of 560 nm.
(§5) The average absorbance of the control was set as 100% of the cell survival rates (%) to calculate the cell survival rates (%) of the experiment groups with different concentrations of the oleanolic acid derivatives.
(§6) The cell survival rate was calculated by the following formula: Absorbance of the experiment group/Absorbance of the control×100%
(§7) The data of the cell survival rates for all experiment groups were plotted on an x-y graph to see the distribution. A trend line was obtained. […]

[2] = Cell cytotoxic test (MTT) on Huh-luc/neo-ET cells; assay type: cell-based; conditions: human, concentration for 50% cell kill, two-day culture
Experimental: as §2, §1, §3, §4, §5, §6, §7

[3] = Huh-luc/neo-ET, compound concentration 10 μM, 2 days co-culture, luciferase activity
[4] = concentration for 50% inhibition of the HCV replication, Huh-luc/neo-ET replicon cells, read-out: IC50
[5] = Huh-luc/neo-ET, 2 days co-culture, luciferase activity

SMILES	IC50 ([1]; Huh-luc/neo-ET) [µM]	inhibition at 10 µM ([1]; Huh-luc/neo-ET) [%]	EW (CC50/IC50) [1]	CC15 (Huh-luc/neo-ET cells) [µM]	CC50 at 2 days [2] [µM]	inhibition at 10 µM [1, 3] [%]	IC50 [1, 4] [µM]	inhibition at 1 µM [1, 5] [%]
C/C=C(/C)C(=O)OC1CC(C)(C)CC2C3=CCC4C5(C)CCC(OC6OC(C)C(OC7OC(C(=O)O)C(O)C(OC8OC(CO)C(O)C(O)C8OC8OC(CO)C(O)C(O)C8O)C7O)C(O)C6O)C(C)(C)C5CCC4(C)C3(C)C(OC(=O)/C=C/C=C/C=C/CCC)C(OC(C)=O)C12CO (stereo not shown) [A15]	3.94 ± 0.13	92 ± 1.6	25.38	>100	> 100	–	–	–
C=CC(C)(O)CC/C=C(\C)C(=O)OCC1OC(OC(=O)C23CCC4(C)C(=CCC5C6(C)CCC(OC7OC(COC8OC(CO)C(O)C(O)C8O)C(OC8OCC(O)C(O)C8OC8OCC(O)C(O)C8O)C(O)C7NC(C)=O)C(C)(C)C6CCC54C)C2CC(C)(C)C(O)C3O)C(OC2OCC(OC3OCC(O)(CO)C3O)C(O)C2O)C(O)C1OC1OC(CO)C(O)C(O)C1O (stereo not shown) [A16]	–	–	107.9	12.09	45.3	95.3 ± 0.3	0.42 ± 0.21	–
C=CC(C)(O)CC/C=C(\C)C(=O)OCC1OC(OC(=O)C23CCC4(C)C(=CCC5C6(C)CCC(OC7OC(COC8OC(CO)C(O)C(O)C8O)C(OC8OCC(O)C(O)C8OC8OCC(O)C(O)C8O)C(O)C7NC(C)=O)C(C)(C)C6CCC54C)C2CC(C)(C)C(O)C3O)C(OC2OCC(OC3OCC(O)(CO)C3O)C(O)C2O)C(O)C1OC1OC(CO)C(OC(C)=O)C(O)C1O (stereo not shown) [A17]	–	–	317.89	1.49	18.1	–	0.057 ± 0.003	94.9 ± 1.2
C/C=C(\C)C(=O)OC1C(OC(C)=O)C2(C(=O)O)C(CC1(C)C)C1=CCC3C4(C)CCC(OC5OC(CO)C(O)C(OC6OC(CO)C(O)C(OC7OC(C)C(O)C(O)C7O)C6O)C5O)C(C)(C)C4CCC3(C)C1(C)C(OC(C)=O)C2OC(C)=O (stereo not shown) [A18]	–	–	–	7.18	94.8	45 ± 2.9	–	–
C=CC(C)(O)CC/C=C(\C)C(=O)OC1C(O)C(CO)OC(OC(=O)C23CCC(C)(C)CC2C2=CCC4C5(C)CCC(OC6OC(COC7OCC(OC(C)=O)C(O)C7OC7OC(COC(C)=O)C(O)C(O)C7OC(C)=O)C(O)C(O)C6OC6OCC(O)C(O)C6O)C(C)(C)C5CCC4(C)C2(C)C(O)C3O)C1OC1OCC(OC2OCC(O)C(OC3OCC(O)C(O)C3O)C2O)C(O)C1O (stereo not shown) [A19]	–	–	435.61	1.17	17.9	–	0.041 ± 0.005	94.8 ± 1.6
C=CC(C)(O)CC/C=C(\C)C(=O)OC1C(O)C(CO)OC(OC(=O)C23CCC(C)(C)CC2C2=CCC4C5(C)CCC(OC6OC(COC7OCC(OC(C)=O)C(O)C7OC7OC(COC(C)=O)C(O)C(O)C7O)C(O)C(O)C6OC6OCC(O)C(O)C6O)C(C)(C)C5CCC4(C)C2(C)C(O)C3O)C1OC1OCC(OC2OCC(O)C(OC3OCC(O)C(O)C3O)C2O)C(O)C1O (stereo not shown) [A20]	–	–	576.67	18.85	50.2	96 ± 1.5	0.087 ± 0.01	–
